The structures appear in SMILES notation.

The assay addresses human GPR17 short isoform (Homo sapiens (Human), UniProt Q13304). Briefly: GPR17 cAMP assay (hGPR17 cAMP, antagonist mode against EC80 of MDL29,951). It is filed as cell-based. To be noted: CHO-K1 cells stably expressing human GPR17 short isoform; EC80 of agonist MDL29,951; forskolin 15 μM. The method, then:
GPR17 cAMP Assay Protocol:
CHO-K1 cells stably expressing vector containing untagged human GPR17 short isoform (Roche) were cultured at 37° C./5% CO2 in DMEM (Dulbecco's Modified Eagle Medium):F-12 (1:1) supplemented with 10% foetal bovine serum and 400 μg/ml Geneticin.
Changes in intracellular cyclic adenosine monophosphate (cAMP) levels were quantified using the Nano-TRF Detection Assay kit (Roche Diagnostics, Cat. No. 05214386001). This assay allows for direct cAMP quantification in a homogeneous solution, cAMP is detected based on time-resolved fluorescence energy transfer (TR-FRET) and competitive binding of ruthenylated cAMP and endogenous cAMP to an anti-cAMP monoclonal antibody labeled with AlexaFluor-700. The Ruthenium complex serves as the FRET donor and transfers energy to AlexaFluor-700. The FRET signal is inversely proportional to the cAMP concentration.
CHO-GPR17S cells were detached with Accutase and resuspended in assay buffer consisting of Hank's Balanced Salt Solution (HBSS), 10 mM HEPES (4-(2-hydroxyethyl) piperazine-1-ethanesulfonic acid solution) and 0.1% bovine serum albumin (pH 7.4). The cells were seeded in black 384-well plates (Corning) at a density of 10,000 cells/20 μl assay buffer until the addition of compounds.
Test antagonist compounds were serially diluted in dimethyl sulfoxide (DMSO) and spotted in 384-well plates. The compounds were then diluted in HBSS buffer supplemented with an EC80 concentration of MDL29,951 (3-(2-Carboxy-4,6-dichloroindol-3-yl)propionic acid) (GPR17 agonist) plus 3-Isobutyl-1-methylxanthine (IBMX) (0.5 mM final concentration) and added to the cells at room temperature. Forskolin (15 μM final concentration) was added 5 minutes after the test compounds and the cells were incubated at room temperature for 30 minutes. The assay was stopped by adding cAMP detection mix (containing detergents for cell lysis) for 90 minutes at room temperature.
Cellular cAMP was measured using a Paradigm reader (Molecular Devices). The raw data was used to calculate the FRET signal based on the assay's P-factor as per cAMP kit instructions. The data was normalized to the maximal activity of a reference antagonist and dose response curves were fitted to the percent activity of the test compounds using a sigmoidal dose response model (Genedata Screener).
(Cyclic AMP is a second messenger, typically raised through Gs and lowered through Gi signalling.)

human GPR17 short isoform, sequence (Q13304 29-367): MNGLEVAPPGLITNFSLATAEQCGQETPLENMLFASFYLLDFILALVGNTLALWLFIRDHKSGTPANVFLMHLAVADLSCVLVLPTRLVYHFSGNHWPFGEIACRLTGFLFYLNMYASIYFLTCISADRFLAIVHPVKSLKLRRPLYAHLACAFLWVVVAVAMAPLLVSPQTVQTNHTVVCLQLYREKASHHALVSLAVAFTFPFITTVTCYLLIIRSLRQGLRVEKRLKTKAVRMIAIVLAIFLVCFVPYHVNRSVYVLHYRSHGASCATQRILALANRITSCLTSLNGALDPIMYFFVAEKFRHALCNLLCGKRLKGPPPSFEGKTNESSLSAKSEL

For the molecule `COc1nc(NS(=O)(=O)c2c[nH]c3cc(Cl)ccc23)ncc1SC(F)F` [Example 37, 6-chloro-N-[5-(difluoromethylthio)-4-methoxy-pyrimidin-2-yl]-1H-indole-3-sulfonamide], the IC50 (commonly the concentration needed to halve the response being measured) was 68 nM.

The molecule `COc1nc(NS(=O)(=O)c2c[nH]c3cc(Cl)ccc23)ncc1OC1CC1` [Example 38, 6-chloro-N-[5-(cyclopropoxy)-4-methoxy-pyrimidin-2-yl]-1H-indole-3-sulfonamide] came in with an IC50 of 2680 nM.

For `COc1nc(NS(=O)(=O)c2c[nH]c3cc(Cl)ccc23)ncc1OCCC(F)F` [Example 39, 6-chloro-N-[5-(3,3-difluoropropoxy)-4-methoxy-pyrimidin-2-yl]-1H-indole-3-sulfonamide], the half-maximal inhibitory concentration (IC50) turned out to be 287 nM.

In turn, `COc1nc(NS(=O)(=O)c2c[nH]c3cc(Cl)ccc23)ncc1OCCC(F)(F)F` [Example 40, 6-chloro-N-[4-methoxy-5-(3,3,3-trifluoropropoxy)pyrimidin-2-yl]-1H-indole-3-sulfonamide] displayed an IC50 of 628 nM.

With `COc1nc(NS(=O)(=O)c2c[nH]c3cc(Cl)ccc23)ncc1OC(F)(F)CF` [Example 41, 6-chloro-N-[4-methoxy-5-(1,1,2-trifluoroethoxy)pyrimidin-2-yl]-1H-indole-3-sulfonamide], the half-inhibitory concentration (IC50) was 21 nM.

`COc1nc(NS(=O)(=O)c2c[nH]c3cc(Cl)ccc23)ncc1OC(C)(F)F` [Example 42, 6-chloro-N-[5-(1,1-difluoroethoxy)-4-methoxy-pyrimidin-2-yl]-1H-indole-3-sulfonamide] yielded a half-inhibitory concentration (IC50) of 194 nM.

Take `COc1nc(NS(=O)(=O)c2c[nH]c3cc(Cl)ccc23)ncc1OC(F)(F)C(F)F` [Example 43, 6-chloro-N-[4-methoxy-5-(1,1,2,2-tetrafluoroethoxy)pyrimidin-2-yl]-1H-indole-3-sulfonamide]: the IC50 came to 60 nM.

Molecule `COc1nc(NS(=O)(=O)c2c[nH]c3cc(Cl)ccc23)ncc1OC(F)(F)C(F)Cl` (stereo not drawn) [Example 44, 6-chloro-N-[5-(2-chloro-1,1,2-trifluoro-ethoxy)-4-methoxy-pyrimidin-2-yl]-1H-indole-3-sulfonamide] yielded an IC50 of 131 nM.

`CCCc1cnc(NS(=O)(=O)c2c[nH]c3cc(Cl)ccc23)nc1OC` [Example 45, 6-chloro-N-(4-methoxy-5-propyl-pyrimidin-2-yl)-1H-indole-3-sulfonamide] came in with a half-inhibitory concentration (IC50) of 82 nM. Compared with the last molecule, the IC50 is about 1.6-fold lower.

With `COc1nc(NS(=O)(=O)c2c[nH]c3cc(Cl)ccc23)ncc1CC1CC1` [Example 46, 6-chloro-N-[5-(cyclopropylmethyl)-4-methoxy-pyrimidin-2-yl]-1H-indole-3-sulfonamide], the concentration for half-maximal inhibition (IC50) is 918 nM.

The molecule `COc1nc(NS(=O)(=O)c2c[nH]c3cc(Cl)ccc23)ncc1CCC(F)F` [Example 48, 6-chloro-N-[5-(3,3-difluoropropyl)-4-methoxy-pyrimidin-2-yl]-1H-indole-3-sulfonamide] displayed a half-inhibitory concentration (IC50) of 26 nM.

The molecule `COCCc1cnc(NS(=O)(=O)c2c[nH]c3cc(Cl)ccc23)nc1OC` [Example 49, 6-chloro-N-[4-methoxy-5-(2-methoxyethyl)pyrimidin-2-yl]-1H-indole-3-sulfonamide] showed an IC50 of 809 nM.

For `COc1nc(NS(=O)(=O)c2c[nH]c3cc(Cl)ccc23)ncc1C1COC1` [Example 50, 6-chloro-N-[4-methoxy-5-(oxetan-3-yl)pyrimidin-2-yl]-1H-indole-3-sulfonamide], the IC50 is 2790 nM.

Consider `COc1nc(NS(=O)(=O)c2c[nH]c3cc(Cl)ccc23)nc(OC)c1OCF` [Example 51, 6-chloro-N-[5-(fluoromethoxy)-4,6-dimethoxy-pyrimidin-2-yl]-1H-indole-3-sulfonamide], for which the IC50 is 94 nM. This IC50 is about 30-fold lower than that of the molecule before.

`COc1nc(NS(=O)(=O)c2c[nH]c3cc(Cl)ccc23)nc(OC)c1OC(F)F` [Example 52, 6-chloro-N-[5-(difluoromethoxy)-4,6-dimethoxy-pyrimidin-2-yl]-1H-indole-3-sulfonamide]: the IC50 was 32 nM. This IC50 lies about 2.9-fold lower than the previous one.

With `COc1nc(NS(=O)(=O)c2c[nH]c3cc(Cl)ccc23)nc(OC)c1OCCF` [Example 53, 6-chloro-N-[5-(2-fluoroethoxy)-4,6-dimethoxy-pyrimidin-2-yl]-1H-indole-3-sulfonamide], the half-inhibitory concentration (IC50) worked out at 11 nM.

For `C=CCc1c(OC)nc(NS(=O)(=O)c2c[nH]c3cc(Cl)ccc23)nc1OC` [Example 56, N-(5-allyl-4,6-dimethoxy-pyrimidin-2-yl)-6-chloro-1H-indole-3-sulfonamide], the IC50 worked out at 13 nM. The IC50 values of the last two molecules are within 1.5-fold of each other.

On to `CC#Cc1c(OC)nc(NS(=O)(=O)c2c[nH]c3cc(Cl)ccc23)nc1OC` [Example 57, 6-chloro-N-(4,6-dimethoxy-5-prop-1-ynyl-pyrimidin-2-yl)-1H-indole-3-sulfonamide], for which the concentration for half-maximal inhibition (IC50) was 34 nM. Compared with the last molecule, the IC50 is about 2.6-fold higher.

`CCCc1c(OC)nc(NS(=O)(=O)c2c[nH]c3cc(Cl)ccc23)nc1OC` [Example 58, 6-chloro-N-(4,6-dimethoxy-5-propyl-pyrimidin-2-yl)-1H-indole-3-sulfonamide] returned an IC50 of 17 nM.

For `COc1nc(NS(=O)(=O)c2c[nH]c3cc(Cl)ccc23)nc(OC)c1CCF` [Example 59, 6-chloro-N-[5-(2-fluoroethyl)-4,6-dimethoxy-pyrimidin-2-yl]-1H-indole-3-sulfonamide], the 50% inhibitory concentration (IC50) is 13 nM.

With `COc1nc(NS(=O)(=O)c2c[nH]c3cc(Cl)ccc23)nc(OC)c1CC(F)F` [Example 60, 6-chloro-N-[5-(2,2-difluoroethyl)-4,6-dimethoxy-pyrimidin-2-yl]-1H-indole-3-sulfonamide], the IC50 was found to be 8 nM.

With `COc1nc(NS(=O)(=O)c2c[nH]c3cc(Cl)ccc23)nc(OC)c1CCCF` [Example 61, 6-chloro-N-[5-(3-fluoropropyl)-4,6-dimethoxy-pyrimidin-2-yl]-1H-indole-3-sulfonamide], the IC50 worked out at 7 nM. The IC50 values of the last two molecules are within 1.5-fold of each other.

Turning to `COc1nc(NS(=O)(=O)c2c[nH]c3cc(Cl)ccc23)nc(OC)c1CCC(F)F` [Example 62, 6-chloro-N-[5-(3,3-difluoropropyl)-4,6-dimethoxy-pyrimidin-2-yl]-1H-indole-3-sulfonamide], the 50% inhibitory concentration (IC50) was determined as 12 nM.

In turn, `COc1nc(NS(=O)(=O)c2c[nH]c3cc(Cl)ccc23)nc(OC)c1CC(C)(F)F` [Example 63, 6-chloro-N-[5-(2,2-difluoropropyl)-4,6-dimethoxy-pyrimidin-2-yl]-1H-indole-3-sulfonamide] displayed an IC50 of 182 nM. This IC50 lies about 15-fold higher than the previous one.

On to `COc1nc(NS(=O)(=O)c2c[nH]c3cc(Cl)ccc23)nc(OC)c1CCC(F)(F)F` [Example 64, 6-chloro-N-[4,6-dimethoxy-5-(3,3,3-trifluoropropyl)pyrimidin-2-yl]-1H-indole-3-sulfonamide], for which the IC50 stood at 39 nM.

Consider `COCc1c(OC)nc(NS(=O)(=O)c2c[nH]c3cc(Cl)ccc23)nc1OC` [Example 65, 6-chloro-N-[4,6-dimethoxy-5-(methoxymethyl)pyrimidin-2-yl]-1H-indole-3-sulfonamide], for which the 50% inhibitory concentration (IC50) amounted to 61 nM.

Molecule `COCCc1c(OC)nc(NS(=O)(=O)c2c[nH]c3cc(Cl)ccc23)nc1OC` [Example 66, 6-chloro-N-[4,6-dimethoxy-5-(2-methoxyethyl)pyrimidin-2-yl]-1H-indole-3-sulfonamide] had a half-maximal inhibitory concentration (IC50) of 19 nM.

The molecule `COc1nc(NS(=O)(=O)c2c[nH]c3cc(Cl)ccc23)nc(OC)c1CC#N` [Example 67, 6-chloro-N-[5-(cyanomethyl)-4,6-dimethoxy-pyrimidin-2-yl]-1H-indole-3-sulfonamide] gave a half-maximal inhibitory concentration (IC50) of 65 nM.

`COc1nc(NS(=O)(=O)c2c[nH]c3cc(Cl)ccc23)nc(OC)c1CCC#N` [Example 68, 6-chloro-N-[5-(2-cyanoethyl)-4,6-dimethoxy-pyrimidin-2-yl]-1H-indole-3-sulfonamide] had a half-inhibitory concentration (IC50) of 9 nM. Compared with the last molecule, the IC50 is about 7.2-fold lower.

With `COc1nc(NS(=O)(=O)c2c[nH]c3cc(Cl)ccc23)nc(OC)c1C1CC1` [Example 69, 6-chloro-N-(5-cyclopropyl-4,6-dimethoxy-pyrimidin-2-yl)-1H-indole-3-sulfonamide], the IC50 is 14 nM.

In turn, `COCCOc1nc(NS(=O)(=O)c2c[nH]c3cc(Cl)ccc23)nc(OC)c1Br` [Example 70, N-[5-bromo-4-methoxy-6-(2-methoxyethoxy)pyrimidin-2-yl]-6-chloro-1H-indole-3-sulfonamide] registered a half-maximal inhibitory concentration (IC50) of 2740 nM. This IC50 lies about 200-fold higher than the previous one.

On to `COc1nc(NS(=O)(=O)c2c[nH]c3cc(Cl)ccc23)nc(OC2CC2)c1Br` [Example 71, N-[5-bromo-4-(cyclopropoxy)-6-methoxy-pyrimidin-2-yl]-6-chloro-1H-indole-3-sulfonamide], for which the IC50 worked out at 11500 nM. This IC50 lies about 4.2-fold higher than the previous one.

Turning to `COc1nc(NS(=O)(=O)c2c[nH]c3cc(Cl)ccc23)nc(OC(F)F)c1C` [Example 72, 6-chloro-N-[4-(difluoromethoxy)-6-methoxy-5-methyl-pyrimidin-2-yl]-1H-indole-3-sulfonamide], the IC50 turned out to be 40 nM.
